From US9034303B2, “Neuroprotective and neuro-restorative iron chelators and monoamine oxidase inhibitors and uses thereof” (priority 2010, dated 2015)
Entries after “also recorded” stand apart in the source; their conditions may differ.

Columns and labels:
[1] = in vitro; conditions: human
Experimental: The cytotoxicity of compound 3 was assessed in vitro using two standard cell lines, HepG2, derived from a human hepatocellular carcinoma, and SH-SY5Y, derived from a human neuroblastoma, both in the presence and absence of excess iron.
HepG2 cells were maintained at ˜5% CO2, 37° C., and 95% relative humidity in minimal essential media (MEM) supplemented with 10% fetal bovine serum plus 0.1 mM non-essential amino acids, 2 mM L-glutamine, and penicillin/streptomycin. SH-SY5Y cells were maintained at ˜5% CO2, 37° C., and 95% relative humidity in a mixture of minimal essential media (MEM) and F12 K media (1:1, v:v) supplemented with 10% fetal bovine serum plus 0.1 mM non-essential amino acids, 2 mM L-glutamine, and penicillin/streptomycin. The cells were subcultured every two to three days and plated in tissue culture treated opaque white 96-well plates at a density of 1×10^4 cells/well and incubated at ˜5% CO2, 37° C., and 95% relative humidity overnight prior to initiation of the assay.
A series of DMSO stocks of the test article at 100× of the final concentration were diluted 1:100 with fresh culture media (final DMSO concentration was 1%). The media from the plated cells was removed and replaced with 100 μL of media containing test article or tamoxifen with final concentrations ranging between 0.01 to 1000 μM in triplicate. Wells containing no cells were used as background controls. Tamoxifen was used as a known positive control and DMSO alone was used as a vehicle control. The cells were incubated for four hours at ˜5% CO2, 37° C., and 95% relative humidity.
Cell viability was determined using a commercially available kit to determine ATP levels by luminescence. Briefly, the buffer and lyophilized substrate from the kit were equilibrated to room temperature. The buffer was used to reconstitute the substrate just prior to addition to the wells of the cell plate (100 μL per well). The plate was placed into the Tecan Infinite M200 plate reader, agitated for 10 minutes followed by a 10 minute wait period, then read using an integration time of 0.5 seconds with no attenuation.
The mean luminescence from the test article treated cells was compared to that treated by DMSO only.

[2] = tested on: 6-OHDA-induced lesions of nigrostrial dopamine neurons; conditions: prior publications; cited from earlier work
[3] = prior publications; cited from earlier work
[4] = tested on: SHSY-5Y; test: Cytotoxicity experiments conducted in the past with M30, SHSY-5Y; assay type: cell-based, human; conditions: past experiments
Excerpt: (§1) Moreover, the outcomes of the cytotoxicity experiments compare very favorably with those conducted in the past with M30.

[5] = as above; assay type: cell-based, human; conditions: human, SH-SY5Y cells; experiments conducted in the past, methods not identical; read-out: LC50 (μM) SHSY-5Y
Excerpt: as §1

[6] = Cytotoxicity experiments conducted in the past with M30, HepG2; assay type: cell-based; conditions: human, HepG2 cells, methods not identical, read-out: LC50 (μM) HepG2
Excerpt: as §1

[7] = Stability in aqueous solution (PBS or saline) followed by HPLC; assay type: physicochemical; conditions: for Amount of compound remaining (%): 25° C., 0.5 mM
Experimental: (§2) Using high pressure liquid chromatography (HPLC), the stability of each of the tested compounds was determined by following its respective chemical character over time in either phosphate buffered saline (PBS) and/or 0.85% saline solution (sodium chloride). In each case, 0.5 mM of the tested compound in PBS or saline solution was incubated at 25° C. or at 37° C. for 20 hours or, in some cases, up to two days (48 hours).

[8] = Cytotoxicity experiments conducted in the past with M30, A549; assay type: cell-based; conditions: human, A549 cells, methods not identical, read-out: LC50 (μM) A549
Excerpt: as §1

[9] = Follow-up stability experiment at 37° C. in PBS; assay type: physicochemical
Experimental: as §2
In addition, in a follow-up experiment the instability of M30, and the stability of compounds 3, 7 and 8 was also confirmed at 37° C. in PBS, Table 2, below.

[10] = biological target: MAO-B (Mus musculus (Mouse), UniProt Q8BW75); test: In vivo MAO-B inhibition in mice after a single i.p. injection; conditions: small intestine, one hour later
Experimental: (§3) For the MAO-inhibition study, mice (6 mice in each group) were injected intraperitoneally (i.p.) with compound 3 at the dosage of 5 or 10 mg/kg; or with M30 at the dosage of 10 mg/kg. Control mice received saline (0.1 mL) i.p. One hour later the mice were killed by cervical dislocation, while striatum and small intestine were removed rapidly and frozen in liquid nitrogen for further analysis. FIGS. 3 and 4 show MAO-A/MAO-B in vivo activity of compound 3 compared to the activity of M30. FIG. 3 presents an MAO inhibition in striatum, and FIG. 4 presents an MAO inhibition in intestine. The percent inhibition was computed based on comparison to control animals.

[11] = biological target: MAO-A (Mus musculus (Mouse), UniProt Q64133); assay type: in vivo, mice; conditions: mice, single i.p. injection, small intestine, one hour later
Experimental: as §3

Sequence of MAO-B (Q8BW75 whole entry): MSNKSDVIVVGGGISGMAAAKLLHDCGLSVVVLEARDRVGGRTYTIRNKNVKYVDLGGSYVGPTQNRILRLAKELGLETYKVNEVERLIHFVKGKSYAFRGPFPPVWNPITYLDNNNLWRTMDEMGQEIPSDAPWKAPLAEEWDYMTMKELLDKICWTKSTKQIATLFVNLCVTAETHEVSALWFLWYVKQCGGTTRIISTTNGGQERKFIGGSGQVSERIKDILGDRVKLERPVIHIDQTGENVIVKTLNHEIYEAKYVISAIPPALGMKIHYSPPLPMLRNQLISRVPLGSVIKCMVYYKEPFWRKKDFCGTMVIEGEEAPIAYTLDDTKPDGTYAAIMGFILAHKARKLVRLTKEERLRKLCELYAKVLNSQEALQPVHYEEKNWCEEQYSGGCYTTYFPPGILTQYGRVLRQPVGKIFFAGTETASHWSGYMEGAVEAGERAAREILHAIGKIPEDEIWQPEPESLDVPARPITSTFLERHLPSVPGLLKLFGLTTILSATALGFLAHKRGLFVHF
Sequence of MAO-A (Q64133 whole entry): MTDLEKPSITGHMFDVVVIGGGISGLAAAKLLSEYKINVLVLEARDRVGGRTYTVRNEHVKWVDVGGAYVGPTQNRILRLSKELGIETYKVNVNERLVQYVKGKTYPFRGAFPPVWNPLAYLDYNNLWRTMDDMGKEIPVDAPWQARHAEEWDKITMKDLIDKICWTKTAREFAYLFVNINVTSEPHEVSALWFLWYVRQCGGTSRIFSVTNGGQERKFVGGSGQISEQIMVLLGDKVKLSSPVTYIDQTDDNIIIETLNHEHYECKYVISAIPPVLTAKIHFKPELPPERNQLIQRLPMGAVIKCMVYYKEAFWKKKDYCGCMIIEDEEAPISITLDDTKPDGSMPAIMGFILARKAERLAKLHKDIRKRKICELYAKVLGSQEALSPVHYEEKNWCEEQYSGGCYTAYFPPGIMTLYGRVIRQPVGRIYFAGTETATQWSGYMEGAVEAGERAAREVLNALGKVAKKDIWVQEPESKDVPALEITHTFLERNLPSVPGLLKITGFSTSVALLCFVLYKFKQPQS

## CC/C(=C(\c1ccccc1)c1ccc(OCCN(C)C)cc1)c1ccccc1 [tamoxifen, reference compound]
[1]
  CC50 at 4 h: ~50 µM
[1]; LC50 (μM) SHSY-5Y
  CC50 at 4 h: ~50 µM

## OCCN1CCN(Cc2ccc(O)c3ncccc23)CC1 [5-[4-(2-hydroxyethyl)piperazin-1-ylmethyl]-8-hydroxyquinoline]
[2]
  Activity against 6-OHDA in an animal model of Parkinson's disease: active against 6-hydroxydopamine (6-OHDA)
[3]
  Crossing of the BBB: able to cross the BBB

## CC(=O)N(O)CCCCCNC(=O)CCC(=O)N(O)CCCCCNC(=O)CCC(=O)N(O)CCCCCN [Desferal]
[2]
  Activity against 6-OHDA in an animal model of Parkinson's disease: protected the rats against 6-OHDA-induced lesions
[3]
  Crossing of the BBB: does not cross the BBB

## C#CCN(C)Cc1ccc(O)c2ncccc12 [Compound M30, 5-[(methyl-2-propyn-1-ylamino)methyl]-8-quinolinol, reference compound]
[4]; with iron, M30 1 μM
  SHSY-5Y cell death (%): 0.69%
[4]; with iron, M30 10 μM
  SHSY-5Y cell death (%): 78.6%
[4]; with iron, M30 100 μM
  SHSY-5Y cell death (%): 38.5%
[4]; without iron, M30 1 μM
  SHSY-5Y cell death (%): −2. %
[4]; without iron, M30 10 μM
  SHSY-5Y cell death (%): 1.0%
[4]; without iron, M30 100 μM
  SHSY-5Y cell death (%): 19. %
[5]
  CC50: > 1000 µM
[6]
  CC50: 842 µM
[7]; PBS and/or saline solution
  Stability in aqueous solution (in words): unstable in aqueous solution; also recorded: degraded in both PBS and saline solution
[7]; PBS, 0.5 hours
  Amount of compound remaining (%): 76%
[7]; PBS, 2 hours
  Amount of compound remaining (%): 57%
[7]; PBS, 20 hours
  Amount of compound remaining (%): 28%
[7]; PBS, 48 hours
  Amount of compound remaining (%): 15%
[7]; saline, 0.5 hours
  Amount of compound remaining (%): 98%
[7]; saline, 2 hours
  Amount of compound remaining (%): 85%
[7]; saline, 20 hours
  Amount of compound remaining (%): 22%
[2]
  Activity against 6-OHDA in an animal model of Parkinson's disease: active against 6-hydroxydopamine (6-OHDA)
[8]
  CC50: > 1000 µM
[9]
  Stability at 37° C. in PBS (in words): instability
[9]; 0.5 hours
  Amount of compound remaining (%): 50.8%
[9]; 1 hour
  Amount of compound remaining (%): 54.9%
[9]; 2 hours
  Amount of compound remaining (%): 45.1%
[9]; 4 hours
  Amount of compound remaining (%): 24.3%
[9]; 8 hours
  Amount of compound remaining (%): 14.4%
[9]; 24 hours
  Amount of compound remaining (%): 4.26%
[3]
  Crossing of the BBB: able to cross the BBB
[10]
  MAO-B inhibition in intestine: Reduced inhibition in the intestinal tissue versus striatal tissue
[11]
  MAO-A inhibition in intestine: Reduced inhibition in the intestinal tissue versus striatal tissue
